pIC50: −log10 of the molar value.
Assays:
[1] = target: D3 receptor (Homo sapiens (Human), UniProt P35462); experiment: D3 receptor competitive binding assay ([3H]-Spiperone, HEK-293 cells)
Description: After the cells were centrifuged at 1000 rpm for 5 min, the supernatant was discarded, and the cell pellet was collected and stored in a -20° C. fridge for reservation. It was re-suspended with Tris-Cl (pH 7.4) in the assay. […] Tris was divided into aliquots by […] Technology Inc. Procedures Competitive binding test for receptors: 20 μl of each of the test compounds and 20 μl of the radioactive ligand together with 160 μl of the receptor proteins were added into the reaction tubes, and the final concentrations of the test compound and the positive drug were all 10 μmol/L. After 50 min of incubation in 30° C. water bath, the tubes were immediately moved to ice bath to terminate the reactions. GF/C glass fiber filter papers were used for rapid sucking filtration on a Millipore cell sample collector, elution buffer (50 mM Tris-HCl, PH 7.4) was applied for 3 ml×3 times, and microwave was applied for 4-5 min for drying. The filter papers were moved into 0.5 ml centrifuge tubes, and 500 μl of lipid-soluble scintillation solution was added. The tubes were allowed to stand still for over 30 min in dark, and the intensities of radioactivity were measured by a counter.

[2] = target: 5HT2A receptor (Rattus norvegicus (Rat), UniProt P14842); experiment: 5HT2A receptor binding assay ([3H]-Ketanserin)
Sequence of 5HT2A receptor (P14842 whole entry): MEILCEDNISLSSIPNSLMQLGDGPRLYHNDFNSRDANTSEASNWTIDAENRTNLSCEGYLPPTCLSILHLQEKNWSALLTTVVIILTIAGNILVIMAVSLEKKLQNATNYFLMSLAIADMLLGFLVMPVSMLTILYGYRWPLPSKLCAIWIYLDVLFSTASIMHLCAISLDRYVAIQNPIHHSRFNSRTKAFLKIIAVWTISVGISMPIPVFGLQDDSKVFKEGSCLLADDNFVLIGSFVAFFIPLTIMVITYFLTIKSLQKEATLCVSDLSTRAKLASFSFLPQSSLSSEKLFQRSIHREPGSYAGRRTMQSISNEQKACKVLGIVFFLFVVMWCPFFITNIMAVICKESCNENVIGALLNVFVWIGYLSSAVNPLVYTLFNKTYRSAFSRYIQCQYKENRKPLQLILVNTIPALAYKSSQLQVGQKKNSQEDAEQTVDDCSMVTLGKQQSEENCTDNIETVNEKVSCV

[3] = Catalepsy assay; settings: both, Kunming (KM), mouse, po
Description: (§1) Healthy mice of Kunming breed (with half male and half female, (22±2) g) were provided by Qinglongshan Animal Cultivation Center, Nanjing.
(§2) The durations for the mice to maintain the posture with the two forepaws on the bars were recorded, and 30 s of spasticity without moving was considered as the positive response. In the case the forepaws of the mice were not put down persistently, the observation was terminated at 60 s. The numbers of animals with positive response in each of the compound dosage groups were counted.

[4] = test system: KM mice; experiment: Apomorphine induced clambering assay of mice; assay type: in vivo; settings: for ED50: Mus musculus, read-out: apomorphine induced clambering ED50; for Scoring (value), apomorphine induced clambering: x ± s, n = 10
Description: Apomorphine Induced Clambering Assay of Mice
Healthy KM mice (male, with body weight of 18-22 g) were provided by Qinglongshan Animal Cultivation Center, Nanjing.
Apomorphine provided by Sigma Company was dissolved in 0.9% NaCl (containing 0.1% vitamin C) before use, and was freshly formulated before use.
Vitamin C, F20061113, was provided by Sinopharm Chemical Reagent Co. Ltd.
Sodium chloride injection, H32026305, was provided by Xuzhou No. 5 Pharmaceutical Factory Co. Ltd.
Instruments: self-made clambering cage, chronograph.
Procedures: apomorphine induced clambering assay of mice
After 5 min of adaptation, the behaviors of the mice at 10-11, 20-21, and 30-31 min after the injection of apomorphine were observed and scored. Scoring criteria: 4 paws on the floor was scored as 0; 2 forepaws on the cage was scored as 1; and 4 paws on the cage was scored as 2.

[5] = test system: mice of Kunming breed; experiment: MK-801 induced high activity; assay type: in vivo; settings: for ED50: Mus musculus; for ED50 / MK-801 induced high activity ED50: po, mice
Description: Healthy mice of Kunming breed (with half male and half female, (20±2) g) were provided by Qinglongshan Animal Cultivation Center, Nanjing.
Ascorbic acid was provided by Sinopharm Chemical Reagent Co. Ltd.
Tween 80, with the concentration of 10%.
Subsequently, the spontaneous activities of the mice of each group in 90 min were measured.

[6] = target: 5HT2C receptor (Rattus norvegicus (Rat), UniProt P08909); experiment: 5HT2C receptor binding assay ([3H]-mesulergine)
Sequence of 5HT2C receptor (P08909 33-460): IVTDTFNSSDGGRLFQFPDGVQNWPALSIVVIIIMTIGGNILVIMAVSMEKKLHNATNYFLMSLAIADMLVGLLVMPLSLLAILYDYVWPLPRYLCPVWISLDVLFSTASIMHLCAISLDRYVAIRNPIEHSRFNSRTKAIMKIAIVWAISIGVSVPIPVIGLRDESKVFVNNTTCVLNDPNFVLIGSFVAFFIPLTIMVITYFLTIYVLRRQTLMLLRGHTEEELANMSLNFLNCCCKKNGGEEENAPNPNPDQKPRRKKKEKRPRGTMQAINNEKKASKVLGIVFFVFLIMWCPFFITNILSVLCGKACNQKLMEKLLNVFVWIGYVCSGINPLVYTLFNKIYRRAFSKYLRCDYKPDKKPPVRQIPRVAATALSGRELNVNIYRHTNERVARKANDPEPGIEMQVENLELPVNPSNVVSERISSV

[7] = target: D2 receptor (Rattus norvegicus (Rat), UniProt P61169); experiment: D2 receptor inhibition binding assay (3H-Spiperone)
Sequence of D2 receptor (P61169 whole entry): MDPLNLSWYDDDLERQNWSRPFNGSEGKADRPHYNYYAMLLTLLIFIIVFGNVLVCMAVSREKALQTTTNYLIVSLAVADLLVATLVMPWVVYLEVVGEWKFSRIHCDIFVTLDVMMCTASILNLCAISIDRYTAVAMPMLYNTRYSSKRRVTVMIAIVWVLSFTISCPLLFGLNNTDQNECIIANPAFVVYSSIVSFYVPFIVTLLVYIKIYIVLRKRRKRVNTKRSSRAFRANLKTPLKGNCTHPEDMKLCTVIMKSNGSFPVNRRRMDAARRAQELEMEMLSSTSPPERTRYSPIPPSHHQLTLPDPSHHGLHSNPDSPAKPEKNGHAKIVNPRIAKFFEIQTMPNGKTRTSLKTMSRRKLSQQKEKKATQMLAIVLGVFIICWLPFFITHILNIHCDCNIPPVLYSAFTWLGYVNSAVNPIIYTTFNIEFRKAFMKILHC
Description: Rats were sacrificed by cervical dislocation on ice. Cerebral cortex was rapidly taken, and 2 cerebral cortexes were combined into a centrifuge tube, to which 3 ml of buffer (0.05 M Tris-HCl buffer, containing NaCl 120 mM, KCl 5 mM, MgCl2 1 mM, CaCl2 1 mM) was added, homogenization was conducted for 3-4 s at level 4 for four times, and then 5 ml of buffer was then added. The weight of the homogenized tubes were adjusted using a balance, and centrifugation was conducted at 12000 r, 4° C. for 20 min. The supernatant was discarded, and 3 ml of B solution was added. Vortex mixer was used for blending, and then 5 ml of B solution was added. Centrifugation was conducted and repeated 3 times. After the centrifugations, the supernatant was discarded, and the pellets were stored at −80° C. for future use.
Beckman LS-6500 Multi-function Liquid Scintillation Counter was used.
(1) The prepared membrane was first applied with appropriate amount of homogenized liquid, and homogenizer was used for evenly dispersing. 15 tubes were mixed into a 100 ml container, and appropriate amount of homogenized liquid was added to give 50 ml of membrane suspension, which was reserved for future use.
(2) 100 μL of membrane preparation and 100 μL of buffer were added into each reaction tube.
(3) 100 μL of homogenized liquid was added into the total binding tube (TB), 100 μL of Butaclamol (final concentration 10^−5 M) was added into the non-specific binding tube (NB), and 100 μL of the test compound (final concentration 10^−5 M) was added into the specific binding tube (SB) for each compound.
(5) Each of the reaction tubes was incubated at 37° C. for 20 min. After the reaction was completed, the bound ligands were rapidly filtered under reduced pressure, and the ice-chilled assay buffer was used for adequate washing. The filter was taken out and put into a 3 ml scintillation vial, and 2 ml of toluene scintillation solution was added and blended.
(6) The scintillation vials were put into Liquid Scintillation Counter for counting. Inhibitory rate (I %)=(Total binding tube cpm−compound cpm)/(Total binding tube cpm−non-specific binding tube cpm)×100%
Each assay for the compounds was conducted in duplicate.

[8] = target: 5HT1A receptor (Rattus norvegicus (Rat), UniProt P19327); experiment: 5HT1A receptor binding assay (3H-8-OH-DPAT)
Sequence of 5HT1A receptor (P19327 whole entry): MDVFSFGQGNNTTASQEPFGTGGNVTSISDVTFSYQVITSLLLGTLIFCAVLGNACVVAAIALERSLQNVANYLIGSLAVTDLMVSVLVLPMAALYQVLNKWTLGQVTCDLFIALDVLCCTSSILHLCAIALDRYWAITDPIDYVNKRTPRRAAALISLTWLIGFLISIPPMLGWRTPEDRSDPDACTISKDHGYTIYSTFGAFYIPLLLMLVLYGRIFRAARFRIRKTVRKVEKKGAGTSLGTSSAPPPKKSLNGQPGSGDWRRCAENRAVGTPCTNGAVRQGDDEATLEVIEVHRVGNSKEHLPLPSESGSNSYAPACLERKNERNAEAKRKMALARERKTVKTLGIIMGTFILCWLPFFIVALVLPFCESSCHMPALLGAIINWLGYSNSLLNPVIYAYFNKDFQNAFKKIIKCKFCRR
Description: Preparation of 5HT1A Membrane
Incubation at 37° C. was conducted for 10 min, the weight of the tubes were adjusted using a balance after incubation. […] Centrifugation was conducted and repeated 3 times.
Materials for the Receptor Binding Assay

[9] = in vivo; settings: both sexes, mouse, in vivo; po, mice, single intragastric administration; read-out: LD50
Description: (§3) Limit Test of Sequential Assay
(§4) KM mice (half male and half female) were randomly divided into several groups (with 2-5 mice in each group), which were respectively the 2000 mg/kg groups for each compound, and the solvent group. 0.2 ml/10 g were administered intragastrically. The death of the animals in 3 days were observed. (In the case 3 or more animals survived in 3 days without notable abnormity in their life states, the observation was continued until the assay was completed in 7 days. In the case 3 or more animals died in 3 days, the median lethal dose method was used to determine the LD50).
(§5) Pre-Assay for the Median Lethal Dose Method
(§6) 0.2 ml/10 g were administered intragastrically, and the death of the animals in 1-3 days were observed.

[10] = test system: KM mice; experiment: Catalepsy assay; settings: mouse, in vivo
Description: as §1, §2

[11] = test system: KM mice; experiment: in vivo; settings: po, mice, single intragastric administration
Description: as §3, §4, §5, §6

Sequence of D3 receptor (P35462 whole entry): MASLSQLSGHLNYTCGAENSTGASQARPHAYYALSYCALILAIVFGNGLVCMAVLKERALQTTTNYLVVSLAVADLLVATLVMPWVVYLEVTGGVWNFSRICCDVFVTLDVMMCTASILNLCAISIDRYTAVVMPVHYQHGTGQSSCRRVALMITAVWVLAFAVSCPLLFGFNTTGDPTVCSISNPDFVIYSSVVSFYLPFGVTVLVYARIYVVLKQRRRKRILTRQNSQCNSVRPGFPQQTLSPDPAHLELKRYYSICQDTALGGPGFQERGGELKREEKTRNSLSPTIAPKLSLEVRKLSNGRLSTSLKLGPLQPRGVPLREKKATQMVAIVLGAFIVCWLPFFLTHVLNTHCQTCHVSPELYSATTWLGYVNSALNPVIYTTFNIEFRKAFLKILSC

Compound | pIC50 [1] | pIC50 [2] | ED50 ([3]; in vivo) | ED50 ([4]; po, mice) | Scoring (value), apomorphine induced clambering ([4]; dosage 0.1 mg/kg) | Scoring (value), apomorphine induced clambering ([4]; dosage 0.3 mg/kg) | Scoring (value), apomorphine induced clambering ([4]; dosage 1 mg/kg) | Scoring (value), apomorphine induced clambering ([4]; dosage 3 mg/kg) | ED50 [5] | pIC50 [6] | pIC50 [7] | pIC50 [8] | LD50 [9] | Scoring (value), apomorphine induced clambering ([4]; dosage 10 mg/kg) | further results
O=c1oc2cc(OCCCN3CCC(c4noc5cc(F)ccc45)CC3)ccc2c2c1CCC2 [Compound 5, 7-{3-[4-(3-(6-fluoro-benzisoxazole)-1-piperidyl)-n-propoxy]}-2,3-dihydro-1H-cyclopenteno[c]benzopyran-4-one] | 8.05 | 9.25 | 168 mg/kg | 0.68 mg/kg | 4.60 ± 2.07 | 3.00 ± 1.94 | 0.90 ± 1.20 | 0.20 ± 0.63 | 0.35 mg/kg | 5.94 | 8.25 | 10.52 | > 2000 mg/kg |  | 
COc1ccccc1N1CCN(CCCCOc2ccc3c4c(c(=O)oc3c2)CCCC4)CC1 [Compound 19, 3-{4-[4-(2-methoxyphenyl)piperazin-1-yl]-butoxy}-7,8,9,10-tetrahydrobenzo[c]benzopyran-6-one] | 7.88 | 8.74 | 156 mg/kg | 0.15 mg/kg |  | 4.90 ± 1.10 | 1.50 ± 1.20 | 0.40 ± 0.97 | 2.35 mg/kg | 5.95 | 8.44 | 8.38 | > 2000 mg/kg |  | Scoring (value), apomorphine induced clambering ([4]; dosage 0.52 mg/kg): 0.75 ± 1.04
COc1ccccc1N1CCN(CCCCOc2ccc3c4c(c(=O)oc3c2)CCC4)CC1 [Compound 7, 7-{4-[4-(2-methoxyphenyl)piperazin-1-yl]-butoxy}-2,3-dihydro-1H-cyclopenteno[c]benzopyran-4-one] | 8.13 | 9.11 | 261 mg/kg | 0.13 mg/kg |  |  |  | 3.50 ± 1.96 | 2.05 mg/kg | 5.89 | 8.68 | 10.10 | > 2000 mg/kg | 2.60 ± 1.58 | affinity for D3 receptor (in words) ([1]; in vitro assay): relatively stronger affinities; affinity for 5-HT2A receptor (in words) ([2]; in vitro assay): relatively stronger affinities; EPS at effective dosage (in words) [10]: did not cause EPS at effective dosage; effect on apomorphine induced clambering symptoms (in words) ([4]; compared to the model group): effectively improve; Scoring (value), apomorphine induced clambering ([4]; dosage 30 mg/kg): 1.80 ± 1.40; Scoring (value), apomorphine induced clambering ([4]; dosage 100 mg/kg): 0.00 ± 0.00; effect on MK-801 induced high activity (in words) ([5]; compared to the model group): significantly improve; affinity for 5HT2C (in words) ([6]; in vitro assay): lower affinity; affinity for D2 receptor (in words) ([7]; in vitro assay): relatively stronger affinities; affinity for 5-HT1A receptor (in words) ([8]; in vitro assay): relatively stronger affinities
CN1CCN(C2=Nc3cc(Cl)ccc3Nc3ccccc32)CC1 [clozapine] |  |  |  |  |  |  |  |  |  |  |  |  | 150 mg/kg | 5.50 ± 0.76 | ED50 [3]: > 50 mg/kg; Scoring (value), apomorphine induced clambering ([4]; dosage 17.4 mg/kg): 4.60 ± 2.07; Scoring (value), apomorphine induced clambering ([4]; dosage 23 mg/kg): 3.70 ± 2.21; Scoring (value), apomorphine induced clambering ([4]; dosage 30 mg/kg): 0.60 ± 1.07; apomorphine induced clambering ED50 ([4]; po, mice): 17.92 mg/kg; MK-801 induced high activity ED50 [5]: 2.28 mg/kg; LD50 [11]: 150 mg/kg
O=C(CCCN1CCC(O)(c2ccc(Cl)cc2)CC1)c1ccc(F)cc1 [haloperidol] |  |  |  | 0.1 mg/kg | 4.50 ± 1.78 | 0.70 ± 0.82 | 0.60 ± 1.58 |  |  |  |  |  | 20 mg/kg |  | ED50 [3]: 0.44 mg/kg; Scoring (value), apomorphine induced clambering ([4]; dosage 0.13 mg/kg): 1.50 ± 1.27; Scoring (value), apomorphine induced clambering ([4]; dosage 0.174 mg/kg): 2.20 ± 1.69; Scoring (value), apomorphine induced clambering ([4]; dosage 0.23 mg/kg): 0.80 ± 0.79; MK-801 induced high activity ED50 [5]: 7.42 mg/kg; LD50 [11]: 20 mg/kg
O=c1oc2c(Cl)c(OCCCCN3CCC(c4noc5cc(F)ccc45)CC3)ccc2c2c1CCC2 [Compound 15, 7-{4-[4-(3-(6-fluoro-benzisoxazole)-1-piperidyl)-butoxy]}-6-chloro-2,3-dihydro-1H-cyclopenteno[c]benzopyran-4-one] | 8.07 | 9.54 | 98.9 mg/kg | 0.56 mg/kg | 4.75 ± 1.58 | 3.38 ± 0.92 | 3.00 ± 1.60 | 0.50 ± 0.76 | 1.25 mg/kg | 5.72 | 8.09 | 9.14 | > 2000 mg/kg |  | 
O=c1oc2c(Cl)c(OCCCCN3CCN(c4nsc5ccccc45)CC3)ccc2c2c1CCC2 [Compound 14, 7-{4-[4-(3-(1,2-benzisothiazole)-1-piperazinyl)-n-butoxy]}-6-chloro-2,3-dihydro-1H-cyclopenteno[c]benzopyran-4-one] | 7.82 | 9.09 | 189 mg/kg | 0.25 mg/kg | 5.30 ± 1.25 | 2.10 ± 1.85 | 1.25 ± 1.75 | 0.25 ± 0.71 | 0.82 mg/kg | 5.83 | 8.00 | 9.07 | > 2000 mg/kg | 0.80 ± 1.40 | 

Reference: US9018213B2, “Alicyclic[c] benzopyrone derivatives and uses thereof” (Huazhong University of Science & Technology, priority 2011, dated 2015)
